In PMC5650142, “GPR40 partial agonists and AgoPAMs: Differentiating effects on glucose and hormonal secretions in the rodent” (PLoS ONE, 2017):
Several values for one entry are separate records, joined by “and”; a condition that tells them apart may be missing. Equal values may be shown once. Read-outs that look alike come from different tables or passages of the source.

Columns and labels:
rat GPR40 = target: T1, rat GPR40 (Rattus norvegicus, UniProt Q8K3T4); experiment: Rat GPR40 IP1 accumulation assay; format: cell-based
T1 construct: expressed in transfected cells; host or cells: CHO-K1 (methods)
T1 sequence (Q8K3T4 whole entry): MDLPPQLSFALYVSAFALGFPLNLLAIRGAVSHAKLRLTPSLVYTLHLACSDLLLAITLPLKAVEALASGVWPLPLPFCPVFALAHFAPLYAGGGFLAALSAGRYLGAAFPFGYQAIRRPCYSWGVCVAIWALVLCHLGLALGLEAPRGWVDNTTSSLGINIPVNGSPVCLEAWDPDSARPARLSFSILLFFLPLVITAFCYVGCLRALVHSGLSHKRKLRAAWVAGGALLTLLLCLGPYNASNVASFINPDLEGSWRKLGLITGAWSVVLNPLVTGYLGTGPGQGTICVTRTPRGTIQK
Protocol: (§1) Stable cell lines expressing human GPR40 (hGPR40/HEK293), mouse GPR40 (mGPR40/CHO-K1), and rat GPR40 (rGPR40/CHO-K1) were cultured in DMEM media supplemented with 10% FBS, glutamine, non-essential amino acids, and penicillin/streptomycin. hGPR40/HEK293 & mGPR40/CHO-K1 cell media was supplemented with […] G418 (Life Technologies), while rGPR40/CHO-K1 cells were grown in […] blasticidin plus […] hygromycin (Life Technologies). Cell stocks were maintained and grown in a sub-confluent state using standard cell culture procedures. The day before the experiment, the cells were harvested with non-enzymatic cell dissociation buffer and re-suspended in DMEM supplemented with 10% FBS, glutamine, non-essential amino acids, penicillin/streptomycin at 0.15, 0.2 and 0.3 million cells per ml for human, mouse, and rat GPR40, respectively. […] The seeded plates were incubated overnight at 37 C.
(§2) On the day of the experiment, the growth media was removed from the assay by gently patting the assay plates on an absorbent sheet and 10 μl of IP1 stimulation buffer (Cis Bio IP-one Tb HTRF kit) supplemented with 50 mM LiCl is added to each well. Test compounds dissolved in DMSO were serially diluted in ½ log increments starting from 2 mM or 0.2 mM and 50 nl of the compound dilution was acoustically added to each well (final starting concentration 10 μM or 1 μM). Plates were then incubated for 60 minutes at room temperature and 10 μl of detection buffer (prepared as described in the Tb kit) is added to each well. The plates are then incubated one additional hour at room temperature. […] For each assay, a standard curve plate in which IP1 is titrated is also included. […] The percent activity at each concentration of test compound is determined using 0% activation (basal activity) determined in those wells that contain DMSO alone, while 100% activity is determined in wells that contained a concentration of a partial allosteric agonist know to activate GPR40. The % activity is then plotted versus the concentration of test compound and the dose response curve fitted to a standard 4-parameter non-linear regression model using a custom in-house developed software package (Merck & Co., Inc., MRL, Kenilworth, NJ, USA). Maximal % activity and EC50 are then determined for each test compound.

mouse GPR40 = target: T2, mouse GPR40 (Mus musculus, UniProt Q76JU9); experiment: Mouse GPR40 IP1 accumulation assay; format: cell-based
T2 construct: expressed in transfected cells; host or cells: CHO-K1 (methods)
T2 sequence (Q76JU9 whole entry): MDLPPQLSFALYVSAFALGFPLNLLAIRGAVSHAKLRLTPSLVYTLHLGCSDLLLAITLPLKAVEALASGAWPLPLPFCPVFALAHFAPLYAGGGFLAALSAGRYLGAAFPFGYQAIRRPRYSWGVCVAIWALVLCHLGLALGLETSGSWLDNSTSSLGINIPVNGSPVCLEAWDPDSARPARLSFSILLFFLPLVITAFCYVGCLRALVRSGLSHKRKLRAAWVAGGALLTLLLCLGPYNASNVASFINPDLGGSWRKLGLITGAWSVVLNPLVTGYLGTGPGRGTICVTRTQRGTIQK
Protocol: as §1, §2

human GPR40 [1] = target: T3, human GPR40 (Homo sapiens, UniProt O14842); experiment: Human GPR40 IP1 accumulation assay; format: cell-based; parameters: expressed in transfected cells
T3 sequence (O14842 whole entry): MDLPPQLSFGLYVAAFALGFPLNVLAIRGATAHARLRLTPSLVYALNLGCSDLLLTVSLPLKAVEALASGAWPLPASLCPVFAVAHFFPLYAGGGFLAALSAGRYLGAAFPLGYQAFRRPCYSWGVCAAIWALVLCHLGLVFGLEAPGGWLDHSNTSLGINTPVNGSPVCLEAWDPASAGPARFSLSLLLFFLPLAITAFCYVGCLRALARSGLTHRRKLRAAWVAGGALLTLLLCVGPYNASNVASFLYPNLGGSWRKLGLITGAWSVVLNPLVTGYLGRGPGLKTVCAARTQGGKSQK
Protocol: as §1, §2

human GPR40 [2] = target: T3, human GPR40; experiment: GPR40 binding assay, partial agonist tracer [3H]L358; parameters: expressed in transfected cells; host or cells: CHO / CHO-K1 cells, membrane preparation; details: radioligand L-001533358;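 on %Bound: 100% is tracer binding with DMSO alone and 0% is full displacement by a standard compound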
Protocol: Two small molecule tracers, the partial agonist [3H][…] and the AgoPAM [3H]25, are used to measure compound affinity at each site as described previously. Because of the allosteric coupling of the two sites and the nature of the assay, addition of a compound will either displace (binds to same site) or augment (binds to allosterically coupled site) radiotracer. Membranes expressing GPR40 were prepared from CHO cells stably expressing human GPR40. […] Sigma P8830) and were homogenized in 50 ml aliquots with a motor-driven glass Dounce homogenizer, 15 strokes at 1900 rpm on wet ice, repeating once. Homogenates were centrifuged at 2200 rpm for 10 min at 4°C. Supernatants were carefully removed and pooled. Homogenization and centrifugation were repeated until the debris pellet was translucent to maximize membrane recovery. Supernatants were then centrifuged at […] rpm for 20 min. at 4°C. […] Protein concentration was determined by Pierce BCA kit. […] The beads and membrane mixture is then vigorously mixed for 30 minutes at room temperature prior to addition to the assay. […] Next, 15 μl of the radioligand and 35 μl of the beads/membranes solution is added to each well. The assay plates are then sealed and incubated for 30 minutes at room temperature on an orbital shaker. The plates are allowed to settle for 16 hours and then counted on a TopCount scintillation counter (PE). […] Maximal % bound and IC50 are then determined for each test compound. 5 μg/well membrane together with 200 μg/well of PVT WGA SPA beads (GE #RPNG-0001) were suspended in a white 96 well plate with a final concentration of 50 μl/well in assay buffer (50 mM Tris, 10 mM MgCl2, and 2 mM EDTA). […] The plate is briefly mixed and incubated for 3-18 h at room temperature, before it is read on a MicroBeta plate counter (Perkin Elmer, MS, USA).

[3] = maximal % activity vs in-house partial agonist control

- Rat GPR40 Receptor Activation (%) (rat GPR40; dose 1.00E-06 M): 370%
- Rat GPR40 Receptor Activation (%) (rat GPR40; dose 1.50E-11 M): -18%
- Rat GPR40 Receptor Activation (%) (rat GPR40; dose 1.56E-08 M): 132%
- Rat GPR40 Receptor Activation (%) (rat GPR40; dose 2.44E-10 M): 11%
- Rat GPR40 Receptor Activation (%) (rat GPR40; dose 2.50E-07 M): 361%
- Rat GPR40 Receptor Activation (%) (rat GPR40; dose 3.91E-09 M): 23%
- Rat GPR40 Receptor Activation (%) (rat GPR40; dose 4.00E-12 M): -6%
- Rat GPR40 Receptor Activation (%) (rat GPR40; dose 6.10E-11 M): 2%
- Rat GPR40 Receptor Activation (%) (rat GPR40; dose 6.25E-08 M): 275%
- Rat GPR40 Receptor Activation (%) (rat GPR40; dose 9.77E-10 M): 18%
- Rat GPR40 Functional Assay %Act (rat GPR40; individual replicates (n)): 380% and 366%
- EC50 (rat GPR40; individual replicates (n), read-out: Rat GPR40 Functional Assay EC50): 26 nM and 56 nM
- Efficacy (% Activation), Rat (rat GPR40; [3]): (373%)
- EC50 (rat GPR40; mean ± SD, n = 2–20, IP accumulation, read-out: Potency [EC50, nM] ± SD, Rat): 41 ± 21 nM
- Mouse GPR40 Receptor Activation (%) (mouse GPR40; dose 1.00E-06 M): 394%
- Mouse GPR40 Receptor Activation (%) (mouse GPR40; dose 1.50E-11 M): -7%
- Mouse GPR40 Receptor Activation (%) (mouse GPR40; dose 1.56E-08 M): 156%
- Mouse GPR40 Receptor Activation (%) (mouse GPR40; dose 2.44E-10 M): 2.81%
- Mouse GPR40 Receptor Activation (%) (mouse GPR40; dose 2.50E-07 M): 318%
- Mouse GPR40 Receptor Activation (%) (mouse GPR40; dose 3.91E-09 M): 67%
- Mouse GPR40 Receptor Activation (%) (mouse GPR40; dose 4.00E-12 M): -8.43%
- Mouse GPR40 Receptor Activation (%) (mouse GPR40; dose 6.10E-11 M): 3.63%
- Mouse GPR40 Receptor Activation (%) (mouse GPR40; dose 6.25E-08 M): 254%
- Mouse GPR40 Receptor Activation (%) (mouse GPR40; dose 9.77E-10 M): 19%
- Mouse GPR40 Functional Assay %Act (mouse GPR40; individual replicates (n)): 406% and 397%
- EC50 (mouse GPR40; individual replicates (n), read-out: Mouse GPR40 Functional Assay EC50): 44 nM and 28 nM
- Efficacy (% Activation), Mouse (mouse GPR40; [3]): (402%)
- EC50 (mouse GPR40; mean ± SD, n = 2–20, IP accumulation, read-out: Potency [EC50, nM] ± SD, Mouse): 36 ± 11 nM
- Human GPR40 Receptor Activation (%) (human GPR40 [1]; dose 2.00E-06 M): 237%
- Human GPR40 Receptor Activation (%) (human GPR40 [1]; dose 2.00E-07 M): 246%
- Human GPR40 Receptor Activation (%) (human GPR40 [1]; dose 2.00E-08 M): 186%
- Human GPR40 Receptor Activation (%) (human GPR40 [1]; dose 2.00E-09 M): 90%
- Human GPR40 Receptor Activation (%) (human GPR40 [1]; dose 2.00E-10 M): 5.57%
- Human GPR40 Receptor Activation (%) (human GPR40 [1]; dose 6.00E-07 M): 204%
- Human GPR40 Receptor Activation (%) (human GPR40 [1]; dose 6.00E-08 M): 223%
- Human GPR40 Receptor Activation (%) (human GPR40 [1]; dose 6.00E-09 M): 129%
- Human GPR40 Receptor Activation (%) (human GPR40 [1]; dose 6.00E-10 M): 27%
- Human GPR40 Receptor Activation (%) (human GPR40 [1]; dose 6.00E-11 M): -7%
- EC50 (human GPR40 [1]; individual replicates (n), read-out: HUMAN GPR40 Functional Assay EC50): 3.7 nM and 4.2 nM and 7.3 nM and 1.3 nM and 2.4 nM and 3.6 nM
- Efficacy (% Activation), Human (human GPR40 [1]; [3]): (200%)
- EC50 (human GPR40 [1]; mean ± SD, n = 2–20, IP accumulation, read-out: Potency [EC50, nM] ± SD, Human): 3.7 ± 1.9 nM
- % Bound Normalized to 100 (human GPR40 [2]; dose 0.318285 nM): 102.20%
- %Bound (human GPR40 [2]; dose 0.318285 nM): 108.18%
- % Bound Normalized to 100 (human GPR40 [2]; dose 1.00578 nM): 103.34%
- %Bound (human GPR40 [2]; dose 1.00578 nM): 109.31%
- % Bound Normalized to 100 (human GPR40 [2]; dose 3.17827 nM): 130.10%
- %Bound (human GPR40 [2]; dose 3.17827 nM): 136.07%
- % Bound Normalized to 100 (human GPR40 [2]; dose 10.0433 nM): 137.50%
- %Bound (human GPR40 [2]; dose 10.0433 nM): 143.47%
- % Bound Normalized to 100 (human GPR40 [2]; dose 31.7369 nM): 182.19%
- %Bound (human GPR40 [2]; dose 31.7369 nM): 188.17%
- % Bound Normalized to 100 (human GPR40 [2]; dose 100.289 nM): 189.31%
- %Bound (human GPR40 [2]; dose 100.289 nM): 195.29%
- % Bound Normalized to 100 (human GPR40 [2]; dose 316.912 nM): 199.27%
- %Bound (human GPR40 [2]; dose 316.912 nM): 205.25%
- % Bound Normalized to 100 (human GPR40 [2]; dose 1001.44 nM): 201.84%
- %Bound (human GPR40 [2]; dose 1001.44 nM): 207.81%
- % Bound Normalized to 100 (human GPR40 [2]; dose 3164.56 nM): 204.40%
- %Bound (human GPR40 [2]; dose 3164.56 nM): 210.37%
- % Bound Normalized to 100 (human GPR40 [2]; dose 10000 nM): 189.59%
- %Bound (human GPR40 [2]; dose 10000 nM): 195.57%
SMILES: COc1ccc(F)c(-c2ccc(COc3cccc([C@@H](CC(=O)O)C4CC4)c3)cc2C2=CCCC2(C)C)c1 [AM-1638, reference compound]
- HUMAN GPR40 Functional Assay %Act (human GPR40 [1]; individual replicates (n)): 245% and 240% and 164% and 211% and 215% and 163%
